From patent US20110086834A1, “ALKYNYL ALCOHOLS AS KINASE INHIBITORS” (AMGEN INC., priority 2008, published 2011)

Target: T1, NIK (Homo sapiens, UniProt Q99558)
T1 construct: Both assays utilize a truncated form of NIK containing only the catalytic domain; made in house; host or cells: baculovirus expression system (insect cells implied)
Test: homogenous time resolved fluorescence (HTRF) assay for NIK Ki measurement
Assay type: biochemical
Details: truncated NIK (catalytic domain only), autophosphorylation; 10 nM enzyme; 20, 100, 200 or 500 μM ATP; room temperature, 2 hours; read-out: Ki activity in the homogenous time resolved fluorescence (HTRF) assay for NIK
Procedure: Two formats of biochemical assays are implemented: (1) chemiluminescent (CL) assay for NIK IC50 determination; (2) homogenous time resolved fluorescence (HTRF) assay for NIK Ki measurement. […] The NIK proteins are purified with baculovirus expression system and further biotinylated with N-hydroxysuccinamide biotin ester (Sigma). […] The reaction mixtures are then immobilized on a Streptavidin-coated plate (Pierce). […] For the HTRF assay, 10 nM of enzyme are incubated with compounds in the presence of 20, 100, 200, or 500 μM of ATP in a buffer with 20 mM of Hepes pH7.5, 20 mM of MgCl2, 0.2% of Tween 20 and 1 mM of DTT at room temperature for 2 hours.

T1 sequence (Q99558 400-655 limits assumed): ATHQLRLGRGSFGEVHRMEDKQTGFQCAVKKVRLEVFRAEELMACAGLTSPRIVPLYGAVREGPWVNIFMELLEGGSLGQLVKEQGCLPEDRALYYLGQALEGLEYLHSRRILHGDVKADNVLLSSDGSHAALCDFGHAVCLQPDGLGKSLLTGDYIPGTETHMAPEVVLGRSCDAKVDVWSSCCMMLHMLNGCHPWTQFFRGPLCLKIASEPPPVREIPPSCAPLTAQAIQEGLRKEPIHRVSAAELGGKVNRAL

Ki [µM] | Compound
< 1 | CC(O)(C#Cc1ccc2c(c1)N(c1nc(N)ncc1Cl)CC21CCOCC1)c1nccs1 (racemic) [Example 208, (rac)-4-(1-(2-Amino-5-chloro-4-pyrimidinyl)-1,2,2′,3′,5′,6′-hexahydrospiro[indole-3,4′-pyran]-6-yl)-2-(1,3-thiazol-2-yl)-3-butyn-2-ol]
< 1 | CNc1nc(N2CC3(CCOCC3)c3ccc(C#CC4(O)CCCC4)cc32)c2nc[nH]c2n1 [Example 207, 1-((1-(2-(Methylamino)-9H-purin-6-yl)-1,2,2′,3′,5′,6′-hexahydrospiro[indole-3,4′-pyran]-6-yl)ethynyl)cyclopentanol]
< 1 | CN1CCC2(C1)CN(c1nc(N)ncc1Cl)c1cc(C#CC3(O)CCCC3)ccc12 (racemic) [Example 188, 1-((1-(2-Amino-5-chloro-4-pyrimidinyl)-r-methyl-1,2-dihydrospiro[indole-3,3′-pyrrolidin]-6-yl)ethynyl)cyclopentanol]
< 1 | CC(O)(C#Cc1ccc2c(c1)N(c1ccnc(N)n1)CC2)c1cccs1 (stereo not shown) [Example 273, 4-(1-(2-Amino-4-pyrimidinyl)-2,3-dihydro-1H-indol-6-yl)-2-(2-thienyl)-3-butyn-2-ol]
< 1 | COCCN(C)C1CCn2c1c(-c1ccncn1)c1cc(C#CC(C)(O)c3nccs3)ccc12 (stereo not shown) [Example 105, 4-(1-((2-methoxyethyl)(methyl)amino)-9-(pyrimidin-4-yl)-2,3-dihydro-1H-pyrrolo[1,2-a]indol-7-yl)-2-(thiazol-2-yl)but-3-yn-2-ol]
< 1 | C[C@]1(CCO)CN(c2nc(N)ncc2Cl)c2cc(C#CC3(O)CCCC3)ccc21 (single isomer, unassigned) [Example 52, 1-(03R*)-1-(2-amino-5-chloro-4-pyrimidinyl)-3-(2-hydroxyethyl)-3-methyl-2,3-dihydro-1H-indol-6-yl)ethynyl)cyclopentanol]
< 1 | CC(O)(C#Cc1ccc2c(c1)N(c1ccnc(N)n1)CC2)c1sccc1Cl (stereo not shown) [Example 284, 4-(1-(2-Amino-4-pyrimidinyl)-2,3-dihydro-1H-indol-6-yl)-2-(3-chloro-2-thienyl)-3-butyn-2-ol]
< 1 | CNc1ncc(Cl)c(-c2c[nH]c3ccc(C#CC4(O)CCCC4)cc23)n1 [Example 112, 1-(2-(3-(5-chloro-2-(methylamino)pyrimidin-4-yl)-1H-indol-5-yl)ethynyl)cyclopentanol]
< 1 | COCCOc1cnc(N)nc1-c1cn(CCOC)c2ccc(C#CC3(O)CCCC3)cc12 [Example 234, 1-((3-(2-Amino-5-(2-methoxyethoxy)-4-pyrimidinyl)-1-(2-methoxyethyl)-1H-indol-5-yl)ethynyl)cyclopentanol]
< 1 | Cn1cc(-c2nc(N)ncc2Cl)c2cc(C#CC(C)(O)c3nccs3)ccc21 (stereo not shown) [Example 116, 4-(3-(2-amino-5-chloropyrimidin-4-yl)-1-methyl-1H-indol-5-yl)-2-(thiazol-2-yl)but-3-yn-2-ol]
< 1 | COCCOc1cnc(N)nc1-c1cn(C)c2ccc(C#CC3(O)CCCC3)cc12 [Example 233, 1-((3-(2-Amino-5-(2-methoxyethoxy)-4-pyrimidinyl)-1-methyl-1H-indol-5-yl)ethynyl)cyclopentanol]
1 to 30 | COCCOc1ccc(Nc2ncnc(N3CC(C)(C)c4ccc(C#CC5(O)CCCC5)cc43)n2)cc1 [Example 17, 1-(2-(1-(4-(4-(2-methoxyethoxy)phenylamino)-1,3,5-triazin-2-yl)-3,3-dimethylindolin-6-yl)ethynyl)cyclopentanol]
< 1 | CC(O)(C#Cc1ccc(OC2CCOCC2)c(Nc2ncncc2Cl)c1)c1nccs1 (stereo not shown) [Example 171, 4-(3-(5-Chloropyrimidin-4-ylamino)-4-(tetrahydro-2H-pyran-4-yloxy)phenyl)-2-(thiazol-2-yl)but-3-yn-2-ol]
< 1 | Cc1cc(C(C)(O)C#Cc2ccc3c(c2)N(c2nc(N)ncc2Cl)CC3)no1 (racemic) [Example 23, 4-(1-(2-amino-5-chloropyrimidin-4-yl)indolin-6-yl)-2-(5-methylisoxazol-3-yl)but-3-yn-2-ol]
< 1 | CC(=O)Nc1cc(C#CC2(O)CCCC2)cc2c1ccn2-c1ccnc(N)n1 [Example 101, N-(1-(2-aminopyrimidin-4-yl)-6-(2-(1-hydroxycyclopentyl)ethynyl)-1H-indol-4-yl)acetamide]
1 to 30 | Cc1csc(C(C)(O)C#Cc2ccc3c(c2)N(c2ccnc(N)n2)CC3)n1 (stereo not shown) [Example 287, 4-(1-(2-Amino-4-pyrimidinyl)-2,3-dihydro-1H-indol-6-yl)-2-(4-methyl-1,3-thiazol-2-yl)-3-Butyn-2-ol]
< 1 | COCC1(C)CN(c2nc(N)nc3[nH]cnc23)c2cc(C#CC3(O)CCCC3)ccc21 (single isomer, unassigned) [Example 70, 1-(((3R*)-1-(2-amino-9H-purin-6-yl)-3-(methoxymethyl)-3-methyl-2,3-dihydro-1H-indol-6-yl)ethynyl)cyclopentanol]

Ki [µM] | Compound
< 1 | CC1(C)CN(c2nc(N)ncc2Cl)c2cc(C#C[C@@](C)(O)c3nccs3)ccc21 (single isomer, unassigned) [Example 40]
< 1 | COCCN(C)c1ccc(C#C[C@@](C)(O)c2nccs2)cc1Nc1nc(N)ncc1Cl [Example 154, (R)-4-(3-(2-Amino-5-chloropyrimidin-4-ylamino)-4-((2-methoxyethyl)(methyl)amino)phenyl)-2-(thiazol-2-yl)but-3-yn-2-ol]
< 1 | CC(O)(C#Cc1ccc2ncc(-c3ccncn3)n2c1)c1nccs1 (stereo not shown) [Example 302, 4-(3-(4-pyrimidinyl)imidazo[1,2-a]pyridin-6-yl)-2-(1,3-thiazol-2-yl)-3-butyn-2-ol]
< 1 | CC(O)(C#Cc1ccc2c(c1)N(c1nc(N)ncc1Cl)CC2)c1cnccn1 (stereo not shown) [Example 4, 4-(1-(2-amino-5-chloropyrimidin-4-yl)indolin-6-yl)-2-(pyrazin-2-yl)but-3-yn-2-ol]
< 1 | COCCN(C)C1CCn2c1c(-c1ccncn1)c1cc(C#CC(C)(O)c3nccs3)ccc12 (single isomer, unassigned) [Example 87, 4-((R*)-1-((2-methoxyethyl)(methyl)amino)-9-(pyrimidin-4-yl)-2,3-dihydro-1H-pyrrolo[1,2-a]indol-7-yl)-2-(thiazol-2-yl)but-3-yn-2-ol]
1 to 30 | COCCN(C)c1ccc(C#C[C@](C)(O)c2nccs2)cc1Nc1nc(N)ncc1Cl [Example 153, (S)-4-(3-(2-Amino-5-chloropyrimidin-4-ylamino)-4-((2-methoxyethyl)(methyl)-amino)phenyl)-2-(thiazol-2-yl)but-3-yn-2-ol]
< 1 | CC(O)(C#Cc1ccc2c(c1)N(c1ccncc1)CC2(CO)CO)c1nccs1 (stereo not shown) [Example 59, 4-(3,3-bis(hydroxymethyl)-1-(4-pyridinyl)-2,3-dihydro-1H-indol-6-yl)-2-(1,3-thiazol-2-yl)-3-butyn-2-ol]
< 1 | Cc1cc(C(C)(O)C#Cc2ccc3[nH]c(C)c(-c4ccncc4)c3c2)no1 (stereo not shown) [Example 104, 4-(2-methyl-3-(pyridin-4-yl)-1H-indol-5-yl)-2-(5-methylisoxazol-3-yl)but-3-yn-2-ol]
< 1 | CC(O)(C#Cc1ccc2c(c1)N(c1nc(N)ncc1Cl)CC21CCCC1)c1ncco1 (stereo not shown) [Example 319, 4-(1′-(2-Amino-5-chloro-4-pyrimidinyl)-1′,2′-dihydrospiro[cyclopentane-1,3′-indol]-6′-yl)-2-(1,3-oxazol-2-yl)-3-butyn-2-ol]
< 1 | CC(O)(C#Cc1ccc2c(c1)N(c1ccnc(N)n1)CC2)c1ncco1 (stereo not shown) [Example 291, 4-(1-(2-amino-4-pyrimidinyl)-2,3-dihydro-1H-indol-6-yl)-2-(1,3-oxazol-2-yl)-3-butyn-2-ol]
< 1 | CC(O)(C#Cc1ccc2c(c1)N(c1nc(N)ncc1Cl)CC21CCS(=O)(=O)CC1)c1nccs1 (racemic) [Example 215, (rac)-4-(1-(2-Amino-5-chloro-4-pyrimidinyl)-1′,1′-dioxido-1,2,2′,3′,5′,6′-hexahydrospiro[indole-3,4′-thiopyran]-6-yl)-2-(1,3-thiazol-2-yl)-3-butyn-2-ol]
< 1 | Nc1ncc(Cl)c(C2=CC3(CCOCC3)c3ccc(C#CC4(O)CCCC4)cc32)n1 [Example 219, 1-((3-(2-Amino-5-chloro-4-pyrimidinyl)-2′,3′,5′,6′-tetrahydrospiro[indene-1,4′-pyran]-5-yl)ethynyl)cyclopentanol]
< 1 | C[C@@](O)(C#Cc1ccc2[nH]cc(-c3ccncn3)c2c1)c1nccs1 [Example 117, (2R)-4-(3-(pyrimidin-4-yl)-1H-indol-5-yl)-2-(thiazol-2-yl)but-3-yn-2-ol]
1 to 30 | Cc1cc([C@@](C)(O)C#Cc2ccc3c(c2)N(c2nc(N)ncc2Cl)CC32CCOCC2)no1 (single isomer, unassigned) [Example 211a]
< 1 | Nc1ncc(Cl)c(N2CC3(CCOCC3)c3ccc(C#CC4(O)CCCC4)cc32)n1 [Example 205, 1-((1-(2-Amino-5-chloro-4-pyrimidinyl)-1,2,2′,3′,5′,6′-hexahydrospiro[indole-3,4′-pyran]-6-yl)ethynyl)cyclopentanol]
< 1 | Cc1cc([C@](C)(O)C#Cc2ccc(F)c(Nc3nc(N)ncc3Cl)c2)no1 [Example 176, (R)-4-(3-(2-Amino-5-chloropyrimidin-4-ylamino)-4-fluorophenyl)-2-(5-methylisoxazol-3-yl)but-3-yn-2-ol]
< 1 | CC(O)(C#Cc1ccc2c(c1)N(c1nc(N)ncc1Cl)CC2(C)C)C(=O)N1CCCC1 (stereo not shown) [Example 50, 4-(1-(2-amino-5-chloro-4-pyrimidinyl)-3,3-dimethyl-2,3-dihydro-1H-indol-6-yl)-2-methyl-1-oxo-1-(1-pyrrolidinyl)-3-butyn-2-ol]
